Values quoted from earlier work in article PMC9569640, “Structural Insights into the Binding Propensity of Human SHIP2 SH2 to Oncogenic CagA Isoforms from Helicobacter pylori” (International Journal of Molecular Sciences, 2022).

Biological target: SHIP2-SH2
Settings: 6-mer phosphopeptides (-2 to +3), both with Leu at pY+3; cited from earlier work
Source text: When the natural phosphopeptides interacting with SHIP2-SH2 were ranked according to their affinities to SHIP2-SH2, it was seen that the affinity was related to the residue type at the pY+3 position (Figure 6F). The ligands showing high and moderate affinities have Leu (L) or Ile (I) residues at this site, while ligands with a low affinity have Val (V) at this site. These indicate that SHIP2-SH2 may have a preference for the hydrophobic side chain of the residue at the pY+3 site of its Tyr-phosphorylated ligand.

Row | Substance | KD for SHIP2-SH2 by SPR (comparison in words)
1 | GGpYMTL [FcgR2A ITAM, 6-mer FcgR2A ITAM phosphopeptide (−2 to +3) of a previous SPR study] | comparable KD values
2 | ITpYSLL [6-mer FcgR2B ITIM, 6-mer FcgR2B ITIM phosphopeptide (-2 to +3) of a previous SPR study] | comparable KD values
